From patent publication US9084815B2, “Method for treating damage induced by an anti-tumor agent, treating mucositis and treating tumor” (SUCAMPO AG, priority 2009, dated 2015)

Tests used:
[1] = tested on: 5-FU induced toxicity (ileum tissue damage); experiment: Effects of Compound A against 5-FU induced toxicity: histopathological tissue damage score of ileum; assay type: in vivo; settings: for Total score (tissue damage): 5-FU 50 mg/kg i.p. Day 1 to 4, ileum H&E on Day 7
Description: After 1 week of acclimatization period, the experiment started (Day 0). Compound A ((−)-7-{(2R,4aR,5R,7aR)-2-[(3S)-1,1-difluoro-3-methylpentyl]-2-hydroxy-6-oxooctahydrocyclopenta[b]pyran-5-yl}heptanoic acid) (3, 10, 30 μg/kg) or vehicle was administered orally once daily for 5 days from Day 0 to 4 (Schedule 1). In other dosing schedule group, Compound A (30 μg/kg) was administered orally once daily from Day 4 to Day 6 (Schedule 2). 5-FU (50 mg/kg) was administered intraperitoneally once daily for 4 days from Day 1 to 4. On Day 1, 2, 3, and 4,5-FU was administered immediately after administration of Compound A or vehicle. During the experiment period (Day 0-7), animals were weighed every day. On Day 7, the animals were anesthetized by isofluran. Ileum was excised and fixed in 10% formalin. Paraffin-embedded sections were prepared and stained with H&E for histopathological evaluation of tissue damage. The tissue damage was graded according to the following criteria: • 0. No change, • 1: slight, • 2: mild, • 3: moderate, • 4: severe The effect of each compound was evaluated using total score of tissue damage.

[2] = tested on: stomatitis aggravated by 5-FU (cheek pouch mucosa); experiment: Effects of Compound A on stomatitis: 5-FU plus cheek pouch scratching, hamster; assay type: in vivo, Golden Syrian hamsters
Description: Male Golden Syrian hamsters (5 weeks old) were used. After 1 week acclimatization period, the hamsters were administered intraperitoneally with 60 mg/kg 5-fluorouracil (5-FU) (Day 1). 5-FU administration was repeated again on Day 2. On Day 4, the cheek pouch mucosa of the hamsters is mechanically irritated under anesthesia by superficial scratching with the tip of an 18-gauge needle to produce transient erythema. On Day 8 and 10, the same scratching procedure was conducted and 5-FU administration was done. The Compound A at the doses of 24 μg/site or vehicle was topically applied to the cheek pouches from Day 1 to Day 14. During the treatment, the cheek pouch mucosa was macroscopically observed and the buccal lesion was scored according to the following criteria (stomatitis score): • 0: Normal mucosa • 1: Erythema was observed • 2: Severe erythema was observed • 3: Severe erythema and formation of ulcers in one or more places were observed. Cumulative size of the ulcers involves ˜25% of the pouch mucosa. Pseudomembrane formation was evident. • 4: Severe erythema and formation of ulcers were observed. Cumulative size of the ulcers involved about half of the pouch mucosa. Loss of mucosal pliability. • 5: diffuse, extensive ulceration. Loss of mucosal pliability. […] Severity of stomatitis was evaluated using the mean of scores per treatment group.

For `CC[C@H](C)CC(F)(F)[C@@]1(O)CC[C@H]2[C@@H](CC(=O)[C@@H]2CCCCCCC(=O)O)O1` [Compound A, (−)-7-{(2R,4aR,5R,7aR)-2-[(3S)-1,1-difluoro-3-methylpentyl]-2-hydroxy-6-oxooctahydrocyclopenta[b]pyran-5-yl}heptanoic acid], the “Total score (tissue damage)” value ([1]; Compound A 3 μg/kg orally once daily, Schedule 1 (Day 0 to 4)) was 10.0, the “Total score (tissue damage)” value ([1]; Compound A 10 μg/kg orally once daily, Schedule 1 (Day 0 to 4)) was 5.0 and the “Total score (tissue damage)” value ([1]; Compound A 30 μg/kg orally once daily, Schedule 1 (Day 0 to 4)) was 5.7. The “Total score (tissue damage)” value ([1]; Compound A 30 μg/kg orally once daily, Schedule 2 (Day 4 to Day 6)) was 4.3, the “Effect on total score of tissue damage (in words)” value ([1]; at 10 or 30 μg/kg regardless of the dosing schedule) was “decreased total scores” and the “Effect on stomatitis compared to vehicle control group (in words)” value ([2]; 24 μg/site topical, stomatitis aggravated by 5-FU treatment) was “improved stomatitis”. For the same compound, the “stomatitis score on Day 14 (Mean ± SE)” value ([2]; 24 μg/site topically to cheek pouches Day 1 to Day 14, 5-FU treatment yes, score 0-5, p < 0.05 vs. vehicle control) was 0.25 ± 0.25.
